The supplement of paper PMC10307832

Legend:
Test in all cases: relative viability (nuclei count vs DMSO), 5 days (fraction); higher = more cells survive
[1] = compound: CC(C)(C)c1nc(-c2cccc(NS(=O)(=O)c3c(F)cccc3F)c2F)c(-c2ccnc(N)n2)s1 [Dabrafenib] + Nc1ncn([C@H]2C[C@H](O)[C@@H](CO)O2)c(=O)n1 [Decitabine] (partner 2 µM)
How it was run: (§1)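 Nuclei were stained with Hoechst during a one-step fixation (final 0.05% Triton X-100, 1% formaldehyde, 1 ug/ml Hoechst) carried out 5 days after dosing, then counted on 4× images. The cells, lung cancer lines in 1536-well plates, had been dosed by pin tool the day after seeding with one drug alone or a fixed anchor-drug dose plus five library-drug doses (not always all listed) in √10 steps. Relative viability is the nuclei count in treated wells divided by that in vehicle wells, and each value is the median of duplicate plates.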

[2] = compound: CC(C)(C)c1nc(-c2cccc(NS(=O)(=O)c3c(F)cccc3F)c2F)c(-c2ccnc(N)n2)s1 [Dabrafenib] + N=C(N)NC(=N)NCCc1ccccc1 [Phenformin] (partner 250 µM)
How it was run: as §1

[3] = compound: CC(C)(C)c1nc(-c2cccc(NS(=O)(=O)c3c(F)cccc3F)c2F)c(-c2ccnc(N)n2)s1 [Dabrafenib] + CC(=O)Nc1cccc(-n2c(=O)n(C3CC3)c(=O)c3c(Nc4ccc(I)cc4F)n(C)c(=O)c(C)c32)c1 [Trametinib] (partner 0.02 µM)
How it was run: as §1

[4] = compound: NC(=O)c1ccc(N(C(N)=O)c2c(F)cccc2F)nc1-c1ccc(F)cc1F [VX-702] + CC1(C)CCC(c2ccc(Cl)cc2)=C(CN2CCN(c3ccc(C(=O)NS(=O)(=O)c4ccc(N[C@H](CCN5CCOCC5)CSc5ccccc5)c(S(=O)(=O)C(F)(F)F)c4)cc3)CC2)C1 [Navitoclax] (partner 0.5 µM)
How it was run: as §1

Cell Line | relative viability ([1]; first compound 0.003 µM) | relative viability ([1]; first compound 0.009487 µM) | relative viability ([1]; first compound 0.03 µM) | relative viability ([1]; first compound 0.09487 µM) | relative viability ([1]; first compound 0.3 µM) | relative viability ([2]; first compound 0.009487 µM) | relative viability ([2]; first compound 0.03 µM) | relative viability ([2]; first compound 0.09487 µM) | relative viability ([2]; first compound 0.3 µM) | relative viability ([3]; first compound 0.003 µM) | relative viability ([3]; first compound 0.009487 µM) | relative viability ([3]; first compound 0.03 µM) | relative viability ([3]; first compound 0.09487 µM) | relative viability ([3]; first compound 0.3 µM) | relative viability ([4]; first compound 0.02 µM) | relative viability ([4]; first compound 0.2 µM) | relative viability ([4]; first compound 0.6325 µM) | relative viability ([4]; first compound 2 µM) | relative viability ([2]; first compound 0.003 µM)
HCC-44 | 1.04 | 0.851 | 0.921 | 0.963 | 0.872 | 0.173 | 0.183 | 0.227 | 0.235 | 0.926 | 0.993 | 1.18 | 0.876 | 1.11 | 0.93 | 0.99 | 0.881 | 1.09 | 
HCC-78 |  | 0.681 | 0.55 | 0.625 | 0.474 | 0.866 | 0.704 | 0.614 | 0.667 |  | 0.688 | 0.668 | 0.761 | 0.89 | 0.673 | 0.772 | 0.806 | 0.852 | 
HCC-366 | 0.392 | 0.33 | 0.404 | 0.364 | 0.176 | 0.672 | 0.539 | 0.483 | 0.612 | 0.324 | 0.348 | 0.225 | 0.374 | 0.396 | 0.971 | 0.988 | 1.1 | 0.918 | 0.325
HCC-827 | 0.267 | 0.347 | 0.33 |  | 0.283 | 0.447 | 0.354 |  | 0.385 | 0.511 | 0.53 | 0.522 |  | 0.616 | 1.01 | 0.988 | 0.891 | 0.939 | 0.31
HOP-62 | 0.216 | 0.183 | 0.221 | 0.188 | 0.217 | 0.604 | 0.627 | 0.491 | 0.495 | 0.352 | 0.41 | 0.36 | 0.429 | 0.469 | 1.28 | 0.848 | 1.03 | 1.15 | 0.518
IA-LM |  |  |  |  |  |  |  |  |  |  |  |  |  |  | 0.928 | 0.853 | 0.658 | 0.905 | 
LC-2-ad | 0.749 | 0.753 | 0.776 | 0.771 | 0.689 | 0.594 | 0.587 | 0.517 | 0.621 | 0.891 | 0.931 | 0.901 | 0.862 | 0.992 | 0.467 | 0.565 | 0.475 | 0.561 | 
LCLC-97TM1 |  | 0.19 | 0.184 | 0.197 | 0.194 | 0.398 | 0.415 | 0.328 | 0.259 |  | 0.225 | 0.193 | 0.21 | 0.205 | 0.379 | 0.458 | 0.344 | 0.489 | 0.339
